Test results taken from PubChem BioAssay (NCI).
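Tested at 5 concentrations; 48 h exposure; 96-well plates; endpoints linearly interpolated, else capped at highest concentration. GI50 = concentration required for 50% inhibition of growth. TGI marks complete inhibition of growth.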

Tests used:
Assay in all cases: inhibition of tumour cell growth, NCI panel, 48 h
UO-31 renal = tested on: UO-31 renal
786-0 renal = tested on: 786-0 renal
SR leukemia = tested on: SR leukemia
NCI-H460 lung = tested on: NCI-H460 lung
RXF 393 renal = tested on: RXF 393 renal
HOP-92 NSCLC = tested on: HOP-92 NSCLC
MDA-MB-231 breast = tested on: MDA-MB-231 breast
HOP-62 NSCLC = tested on: HOP-62 NSCLC
SW-620 colon = tested on: SW-620 colon
HCT-116 colon = tested on: HCT-116 colon
MCF7 breast = tested on: MCF7 breast
U251 CNS = tested on: U251 CNS
UACC-257 melanoma = tested on: UACC-257 melanoma
COLO 205 colon = tested on: COLO 205 colon
CAKI-1 renal = tested on: CAKI-1 renal
IGROV1 ovarian = tested on: IGROV1 ovarian
MOLT-4 leukemia = tested on: MOLT-4 leukemia
HCT-15 colon = tested on: HCT-15 colon
SK-MEL-5 melanoma = tested on: SK-MEL-5 melanoma
UACC-62 melanoma = tested on: UACC-62 melanoma
EKVX NSCLC = tested on: EKVX NSCLC
NCI-H23 lung = tested on: NCI-H23 lung
OVCAR-8 ovarian = tested on: OVCAR-8 ovarian
SN12C renal = tested on: SN12C renal
ACHN renal = tested on: ACHN renal
OVCAR-3 ovarian = tested on: OVCAR-3 ovarian
SK-OV-3 ovarian = tested on: SK-OV-3 ovarian
HCC-2998 colon = tested on: HCC-2998 colon
KM12 colon = tested on: KM12 colon
T-47D breast = tested on: T-47D breast
MDA-MB-435 = tested on: MDA-MB-435
NCI-H226 lung = tested on: NCI-H226 lung
PC-3 prostate = tested on: PC-3 prostate
OVCAR-5 ovarian = tested on: OVCAR-5 ovarian
LOX IMVI melanoma = tested on: LOX IMVI melanoma
SF-539 CNS = tested on: SF-539 CNS
TK-10 renal = tested on: TK-10 renal
NCI/ADR-RES ovarian = tested on: NCI/ADR-RES ovarian
OVCAR-4 ovarian = tested on: OVCAR-4 ovarian
A549 NSCLC = tested on: A549 NSCLC
SNB-19 CNS = tested on: SNB-19 CNS
SF-295 CNS = tested on: SF-295 CNS
NCI-H522 lung = tested on: NCI-H522 lung
CCRF-CEM leukemia = tested on: CCRF-CEM leukemia
BT-549 breast = tested on: BT-549 breast
MALME-3M melanoma = tested on: MALME-3M melanoma
HT29 colon = tested on: HT29 colon
DU-145 prostate = tested on: DU-145 prostate
HL-60(TB) leukemia = tested on: HL-60(TB) leukemia
K-562 leukemia = tested on: K-562 leukemia
M14 melanoma = tested on: M14 melanoma
HS 578T breast = tested on: HS 578T breast
A498 renal = tested on: A498 renal
SF-268 CNS = tested on: SF-268 CNS
SK-MEL-2 melanoma = tested on: SK-MEL-2 melanoma
RPMI-8226 leukemia = tested on: RPMI-8226 leukemia
SK-MEL-28 melanoma = tested on: SK-MEL-28 melanoma

SMILES: Cc1ccc(C2=Nc3c(N)nc(N)nc3NC(c3cccc(Nc4ccnc5cc(C(F)(F)F)ccc45)c3)C2)cc1 (centres undefined)
- GI50 (UO-31 renal): 1510 nM
- TGI (UO-31 renal): 3030 nM
- GI50 (786-0 renal): 1510 nM
- TGI (786-0 renal): 2900 nM
- GI50 (SR leukemia): 1530 nM
- TGI (SR leukemia): 5440 nM
- GI50 (NCI-H460 lung): 1870 nM
- TGI (NCI-H460 lung): 3680 nM
- GI50 (RXF 393 renal): 1410 nM
- TGI (RXF 393 renal): 2870 nM
- GI50 (HOP-92 NSCLC): 1350 nM
- TGI (HOP-92 NSCLC): 2900 nM
- GI50 (MDA-MB-231 breast): 1670 nM
- TGI (MDA-MB-231 breast): 3260 nM
- GI50 (HOP-62 NSCLC): 2660 nM
- TGI (HOP-62 NSCLC): 9400 nM
- GI50 (SW-620 colon): 1700 nM
- TGI (SW-620 colon): 3520 nM
- GI50 (HCT-116 colon): 1610 nM
- TGI (HCT-116 colon): 2960 nM
- GI50 (MCF7 breast): 1840 nM
- TGI (MCF7 breast): 4990 nM
- GI50 (U251 CNS): 1820 nM
- TGI (U251 CNS): 3620 nM
- GI50 (UACC-257 melanoma): 2120 nM
- TGI (UACC-257 melanoma): 4420 nM
- GI50 (COLO 205 colon): 1710 nM
- TGI (COLO 205 colon): 3680 nM
- GI50 (CAKI-1 renal): 2290 nM
- TGI (CAKI-1 renal): 8710 nM
- GI50 (IGROV1 ovarian): 1890 nM
- TGI (IGROV1 ovarian): 4770 nM
- GI50 (MOLT-4 leukemia): 2430 nM
- TGI (MOLT-4 leukemia): 6430 nM
- GI50 (HCT-15 colon): 1760 nM
- TGI (HCT-15 colon): 3570 nM
- GI50 (SK-MEL-5 melanoma): 1600 nM
- TGI (SK-MEL-5 melanoma): 2980 nM
- GI50 (UACC-62 melanoma): 1700 nM
- TGI (UACC-62 melanoma): 3460 nM
- GI50 (EKVX NSCLC): 2910 nM
- TGI (EKVX NSCLC): 11500 nM
- GI50 (NCI-H23 lung): 2180 nM
- TGI (NCI-H23 lung): 5580 nM
- GI50 (OVCAR-8 ovarian): 2310 nM
- TGI (OVCAR-8 ovarian): 5600 nM
- GI50 (SN12C renal): 2030 nM
- TGI (SN12C renal): 4710 nM
- GI50 (ACHN renal): 2800 nM
- TGI (ACHN renal): 11100 nM
- GI50 (OVCAR-3 ovarian): 1780 nM
- TGI (OVCAR-3 ovarian): 3530 nM
- GI50 (SK-OV-3 ovarian): 3560 nM
- TGI (SK-OV-3 ovarian): 13400 nM
- GI50 (HCC-2998 colon): 1770 nM
- TGI (HCC-2998 colon): 3330 nM
- GI50 (KM12 colon): 1710 nM
- TGI (KM12 colon): 3630 nM
- GI50 (T-47D breast): 2220 nM
- TGI (T-47D breast): 8730 nM
- GI50 (MDA-MB-435): 1200 nM
- TGI (MDA-MB-435): 2630 nM
- GI50 (NCI-H226 lung): 4880 nM
- TGI (NCI-H226 lung): 22300 nM
- GI50 (PC-3 prostate): 1590 nM
- TGI (PC-3 prostate): 4380 nM
- GI50 (OVCAR-5 ovarian): 3690 nM
- TGI (OVCAR-5 ovarian): 15700 nM
- GI50 (LOX IMVI melanoma): 1740 nM
- TGI (LOX IMVI melanoma): 3300 nM
- GI50 (SF-539 CNS): 1770 nM
- TGI (SF-539 CNS): 3490 nM
- GI50 (TK-10 renal): 4110 nM
- TGI (TK-10 renal): 16500 nM
- GI50 (NCI/ADR-RES ovarian): 2290 nM
- TGI (NCI/ADR-RES ovarian): 6150 nM
- GI50 (OVCAR-4 ovarian): 3020 nM
- TGI (OVCAR-4 ovarian): 14000 nM
- GI50 (A549 NSCLC): 2880 nM
- TGI (A549 NSCLC): 10700 nM
- GI50 (SNB-19 CNS): 2270 nM
- TGI (SNB-19 CNS): 7080 nM
- GI50 (SF-295 CNS): 1560 nM
- TGI (SF-295 CNS): 3170 nM
- GI50 (NCI-H522 lung): 1560 nM
- TGI (NCI-H522 lung): 3490 nM
- GI50 (CCRF-CEM leukemia): 2210 nM
- TGI (CCRF-CEM leukemia): 5730 nM
- GI50 (BT-549 breast): 1660 nM
- TGI (BT-549 breast): 3360 nM
- GI50 (MALME-3M melanoma): 1860 nM
- TGI (MALME-3M melanoma): 3870 nM
- GI50 (HT29 colon): 2460 nM
- TGI (HT29 colon): 5890 nM
- GI50 (DU-145 prostate): 2780 nM
- TGI (DU-145 prostate): 6520 nM
- GI50 (HL-60(TB) leukemia): 2380 nM
- TGI (HL-60(TB) leukemia): 5540 nM
- GI50 (K-562 leukemia): 1370 nM
- TGI (K-562 leukemia): 6980 nM
- GI50 (M14 melanoma): 1720 nM
- TGI (M14 melanoma): 3430 nM
- GI50 (HS 578T breast): 1660 nM
- TGI (HS 578T breast): 4460 nM
- GI50 (A498 renal): 2150 nM
- TGI (A498 renal): 8020 nM
- GI50 (SF-268 CNS): 1930 nM
- TGI (SF-268 CNS): 4190 nM
- GI50 (SK-MEL-2 melanoma): 1950 nM
- TGI (SK-MEL-2 melanoma): 4050 nM
- GI50 (RPMI-8226 leukemia): 1900 nM
- TGI (RPMI-8226 leukemia): 4700 nM
- GI50 (SK-MEL-28 melanoma): 1700 nM
- TGI (SK-MEL-28 melanoma): 3330 nM
